Data from ChEMBL document CHEMBL1201862, “PubChem BioAssay data set” (2004).
The source made the active and inactive calls.

Legend:
[1] = target: T1, Rac GTPase-activating protein 1 (Homo sapiens, UniProt Q9H0H5); test: MgcRacGAP GTPase-activating activity inhibitors, confirmation, biochemical, ADP Hunter fluorescence, primary and confirmatory (AID 624330); assay type: functional
T1 sequence (Q9H0H5 whole entry): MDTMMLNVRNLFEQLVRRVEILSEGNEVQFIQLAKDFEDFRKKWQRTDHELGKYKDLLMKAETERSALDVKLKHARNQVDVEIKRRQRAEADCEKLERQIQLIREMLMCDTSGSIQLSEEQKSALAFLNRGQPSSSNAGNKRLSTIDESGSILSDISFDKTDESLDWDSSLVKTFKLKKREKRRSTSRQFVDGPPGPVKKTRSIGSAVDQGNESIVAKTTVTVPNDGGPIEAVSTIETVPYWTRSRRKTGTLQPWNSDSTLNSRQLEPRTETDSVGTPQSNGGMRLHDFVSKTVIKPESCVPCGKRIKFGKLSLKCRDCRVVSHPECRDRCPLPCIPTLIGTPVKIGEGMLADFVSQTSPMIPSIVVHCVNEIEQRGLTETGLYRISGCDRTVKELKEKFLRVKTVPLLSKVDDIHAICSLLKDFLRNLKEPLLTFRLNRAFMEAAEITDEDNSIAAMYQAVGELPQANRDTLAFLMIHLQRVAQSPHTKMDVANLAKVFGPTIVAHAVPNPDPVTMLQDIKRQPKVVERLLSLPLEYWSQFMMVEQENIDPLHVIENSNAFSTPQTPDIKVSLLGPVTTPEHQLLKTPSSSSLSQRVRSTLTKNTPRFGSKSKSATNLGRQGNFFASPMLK

[2] = target: Luciferin 4-monooxygenase (Photinus pyralis, UniProt P08659); test: firefly luciferase enzyme inhibitors, dose response, biochemical, luminescence (AID 1891)
Sequence of Luciferin 4-monooxygenase (P08659 whole entry): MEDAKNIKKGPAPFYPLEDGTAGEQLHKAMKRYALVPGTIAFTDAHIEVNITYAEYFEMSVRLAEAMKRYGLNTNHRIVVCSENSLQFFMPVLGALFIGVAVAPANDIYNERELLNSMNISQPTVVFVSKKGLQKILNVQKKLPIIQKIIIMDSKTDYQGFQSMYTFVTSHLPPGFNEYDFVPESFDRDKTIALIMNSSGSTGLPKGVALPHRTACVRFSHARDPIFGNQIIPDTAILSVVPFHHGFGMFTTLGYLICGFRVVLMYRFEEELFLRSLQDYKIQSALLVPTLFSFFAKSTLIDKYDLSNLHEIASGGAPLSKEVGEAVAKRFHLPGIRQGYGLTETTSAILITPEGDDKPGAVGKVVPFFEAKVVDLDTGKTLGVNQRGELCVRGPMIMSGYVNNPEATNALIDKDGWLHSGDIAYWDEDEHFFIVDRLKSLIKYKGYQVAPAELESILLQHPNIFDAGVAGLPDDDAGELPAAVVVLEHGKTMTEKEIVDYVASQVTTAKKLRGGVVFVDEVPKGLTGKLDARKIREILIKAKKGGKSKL

[3] = Luminescence Cell-Based Dose Confirmation HTS to Identify Inhibitors of Platelet Dense Granule Release. [Related pubchem assays: 1663 (Primary HTS), 1678 (Summary of Project)]; assay type: functional
[4] = target: T2, Replicative DNA helicase DnaB (Mycobacterium tuberculosis, UniProt P9WMR3); test: DnaB intein splicing inhibitors, dose response, biochemical, cell-free fluorescence (AID 449749); assay type: functional
T2 sequence (P9WMR3 whole entry): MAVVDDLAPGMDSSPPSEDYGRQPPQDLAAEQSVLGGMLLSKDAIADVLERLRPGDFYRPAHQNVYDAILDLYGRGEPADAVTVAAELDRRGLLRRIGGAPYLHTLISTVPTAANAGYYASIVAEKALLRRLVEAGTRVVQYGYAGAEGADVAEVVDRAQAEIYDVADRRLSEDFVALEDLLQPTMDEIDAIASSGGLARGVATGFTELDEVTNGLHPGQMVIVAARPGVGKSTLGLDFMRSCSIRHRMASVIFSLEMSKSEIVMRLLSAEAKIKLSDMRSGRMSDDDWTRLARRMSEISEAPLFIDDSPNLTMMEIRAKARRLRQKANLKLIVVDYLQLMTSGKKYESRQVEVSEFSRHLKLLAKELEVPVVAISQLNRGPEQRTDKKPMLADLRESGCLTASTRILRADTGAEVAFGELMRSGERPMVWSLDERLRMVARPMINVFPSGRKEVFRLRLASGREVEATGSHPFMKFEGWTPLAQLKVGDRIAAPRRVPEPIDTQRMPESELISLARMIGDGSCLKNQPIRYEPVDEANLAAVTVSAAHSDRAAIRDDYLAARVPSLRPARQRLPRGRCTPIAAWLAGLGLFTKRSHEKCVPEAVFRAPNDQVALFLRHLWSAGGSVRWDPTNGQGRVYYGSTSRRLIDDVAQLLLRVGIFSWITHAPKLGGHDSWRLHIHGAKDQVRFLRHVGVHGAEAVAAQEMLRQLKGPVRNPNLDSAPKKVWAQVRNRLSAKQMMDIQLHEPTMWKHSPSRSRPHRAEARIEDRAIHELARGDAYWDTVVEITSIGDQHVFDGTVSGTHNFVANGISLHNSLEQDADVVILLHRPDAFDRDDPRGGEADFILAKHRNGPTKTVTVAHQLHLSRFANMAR

Protein RecA = target: T3, Protein RecA (Mycobacterium tuberculosis, UniProt P9WHJ3); test: Fluorescence Cell-Free Homogeneous Dose Retest to Identify Inhibitors of RecA-Intein Splicing Activity. [Related pubchem assays (depositor defined):AID2097, AID2223, AID489010, AID492950]; assay type: functional
T3 sequence (P9WHJ3 whole entry): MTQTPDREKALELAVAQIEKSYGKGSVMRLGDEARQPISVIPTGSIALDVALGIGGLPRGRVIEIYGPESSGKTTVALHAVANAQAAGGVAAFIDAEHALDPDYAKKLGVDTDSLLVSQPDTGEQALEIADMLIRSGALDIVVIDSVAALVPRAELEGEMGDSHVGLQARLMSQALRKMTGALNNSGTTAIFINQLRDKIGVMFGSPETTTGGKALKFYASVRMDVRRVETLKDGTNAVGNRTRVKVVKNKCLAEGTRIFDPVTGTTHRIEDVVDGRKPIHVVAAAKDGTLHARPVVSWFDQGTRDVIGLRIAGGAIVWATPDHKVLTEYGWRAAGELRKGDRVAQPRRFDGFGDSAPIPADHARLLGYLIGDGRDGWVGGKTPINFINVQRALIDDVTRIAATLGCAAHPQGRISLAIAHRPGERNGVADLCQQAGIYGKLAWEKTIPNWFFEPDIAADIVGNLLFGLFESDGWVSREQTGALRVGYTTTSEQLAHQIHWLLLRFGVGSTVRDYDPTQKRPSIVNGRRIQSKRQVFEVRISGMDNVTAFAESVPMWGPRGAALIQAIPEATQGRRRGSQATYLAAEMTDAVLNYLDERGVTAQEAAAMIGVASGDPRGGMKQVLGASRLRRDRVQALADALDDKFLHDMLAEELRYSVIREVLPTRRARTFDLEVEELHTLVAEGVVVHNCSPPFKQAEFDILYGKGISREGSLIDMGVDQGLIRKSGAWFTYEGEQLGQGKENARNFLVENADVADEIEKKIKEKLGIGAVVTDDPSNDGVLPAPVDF

[5] = cytotoxicity toward NIH3T3 fibroblasts, dose response, counter-screen, cell-based, ATP luminescence, mouse fibroblasts (AID 2010); assay type: functional;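 note: cells exposed to compound for about 90 hours before reading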
[6] = inhibitors of intracellular T. cruzi replication, confirmation, NIH3T3 host cells, beta-gal luminescence (AID 2044); assay type: functional, cell-based;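 note: intracellular parasites grown in NIH/3T3 mouse fibroblasts as host cells; luminescent beta-galactosidase reporter signal from transgenic T. cruzi replicating inside host cells; inhibitors lower the luminescence signal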
[7] = target: FAD-linked sulfhydryl oxidase ALR (Homo sapiens, UniProt P55789); test: inhibitors of human ALR sulfhydryl oxidase, dose response, biochemical, H2O2 detection, luminescence, cherry-pick (AID 493248)
Sequence of FAD-linked sulfhydryl oxidase ALR (P55789 whole entry): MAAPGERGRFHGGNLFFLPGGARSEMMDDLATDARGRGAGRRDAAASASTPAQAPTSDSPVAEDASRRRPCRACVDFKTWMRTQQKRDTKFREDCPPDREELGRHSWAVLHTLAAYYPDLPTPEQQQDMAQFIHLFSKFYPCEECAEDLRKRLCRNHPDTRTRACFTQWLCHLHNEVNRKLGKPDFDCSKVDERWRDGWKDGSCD

## COc1ccc(N2CCN(C(=O)CCCn3nnnc3CN3CCOCC3)C(C)C2)cc1 (centres undefined)
[1]
  IC50: 150 µM (active)

## CCOC(=O)c1sc(=S)n(CC)c1NC(=O)C1CC1
[2]
  EC50: > 112 µM (not active)
[3]
  EC50: > 112 µM (not active)

## CC(=O)N1N=C(c2ccncc2)OC12CCCC2
[2]
  EC50: > 112 µM (not active)
[3]
  EC50: > 112 µM (not active)

## CCc1n[nH]c2c1C(c1ccc(C)o1)C(C#N)=C(N)O2 (centres undefined)
[4]
  AC50: 37.3 µM (active)
Protein RecA
  EC50: 4.31 µM (active)

## CCOc1cc(NC(=O)c2ccccc2C(=O)O)c(OCC)cc1NC(=O)c1ccccc1F
[1]
  IC50: 54.8 µM (active)
[5]
  EC50: > 60 µM (not active)
[6]
  EC50: 5.83 µM (active)

## Cc1c(Cl)cccc1Nc1nnc(S)s1
[1]
  IC50: 108 µM (active)

## COc1ccccc1-n1c(=O)c2c3c(sc2n2c(S)nnc12)CCC3
[1]
  IC50: 50.3 µM (active)

## CCN(CC(=O)Nc1ccc(S(=O)(=O)N2CCCC2)cc1)CC(=O)Nc1cccc(OC)c1
[1]
  IC50: 35.5 µM (active)

## COc1cc(-n2c(S)nnc2-c2ccccc2)c(OC)cc1Cl
[7]
  AC50: 12.3 µM (active)

## COc1cc(/C=C/C(=O)OCC(=O)Nc2cccc(F)c2)ccc1O
[1]
  IC50: 41.6 µM (active)

## Sc1nncn1/N=C/c1ccccn1
[7]
  AC50: 3.06 µM (active)

## COC(CN(C(=O)CCl)C(C(=O)NC1CCCC(C)C1C)c1ccc(C)cc1)OC (centres undefined)
[4]
  AC50: 24.6 µM (active)
Protein RecA
  EC50: 2.11 µM (active)

## Clc1ccc(/C=C/c2ncc3ccccn23)cc1
[7]
  AC50: 8.17 µM (active)

## C/C(=N\Nc1nc2ccccc2[nH]1)c1ccc(C)o1
[1]
  IC50: 69 µM (active)
[7]
  AC50: 0.299 µM (active)

## CC1CCCN(C(=O)COc2ccc(NC(=O)c3cccs3)cc2)C1 (centres undefined)
[4]
  AC50: > 380 µM (inactive)
Protein RecA
  EC50: > 380 µM (inactive)

## Nc1cccc(-c2cn3cccnc3n2)c1
[7]
  AC50: 0.232 µM (active)

## Cc1csc(SCC(=O)Nc2nc(-c3ccccc3)cs2)n1
[2]
  EC50: > 112 µM (not active)
[3]
  EC50: > 112 µM (not active)

## CCOc1c(OC(C)=O)ccc(/C=C/c2ccc3cccc(OC)c3n2)c1[N+](=O)[O-]
[2]
  EC50: > 112 µM (not active)
[3]
  EC50: 17.6 µM (active)

## c1ccc2nc(N3CCCC3)c(N3CCCC3)nc2c1
[7]
  AC50: 0.034 µM (active)
